In the supplement of paper PMC10883282:

How the values were obtained:
Assay in all cases: relative viability vs DMSO control (72 h) (fraction); higher = more viable cells
[1] = tested on: A204
In short: (§1)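 Sarcoma cell lines were plated in 384 wells to reach 80–90% confluence, treated after 24 h with 2.5 µl of serially diluted compound and held 72 h at 37 °C, 5% CO2. Relative viability was taken as percent growth from ATPLite readings, averaged over up to triplicate wells. The values were rescaled so that 1 marks full and 0 marks none.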

[2] = tested on: G401
In short: as §1

[3] = tested on: HS729
In short: as §1

[4] = tested on: HT1080
In short: as §1

[5] = tested on: KHOS-NP
In short: as §1

[6] = tested on: MES-SA
In short: as §1

[7] = tested on: SK-LMS-1
In short: as §1

[8] = tested on: SW1353
In short: as §1

[9] = tested on: SW684
In short: as §1

[10] = tested on: SW872
In short: as §1

[11] = tested on: SYO-1
In short: as §1

[12] = tested on: VA-ES-BJ
In short: as §1

COC(=O)c1ccc2c(c1)NC(=O)/C2=C(\Nc1ccc(N(C)C(=O)CN2CCN(C)CC2)cc1)c1ccccc1 [Nintedanib]
Settings	relative viability
[1], 0.00017 µM	1.04
[1], 0.00051 µM	1.04
[1], 0.00152 µM	1.02
[1], 0.00457 µM	0.997
[1], 0.01372 µM	0.831
[1], 0.04115 µM	0.566
[1], 0.1235 µM	0.434
[1], 0.3704 µM	0.392
[1], 1.111 µM	0.376
[1], 3.333 µM	0.318
[1], 10 µM	0.22
[2], 0.00017 µM	1
[2], 0.00051 µM	0.99
[2], 0.00152 µM	0.992
[2], 0.00457 µM	1.03
[2], 0.01372 µM	0.98
[2], 0.04115 µM	0.987
[2], 0.1235 µM	0.977
[2], 0.3704 µM	0.891
[2], 1.111 µM	0.721
[2], 3.333 µM	0.485
[2], 10 µM	0.0535
[3], 0.00017 µM	0.981
[3], 0.00051 µM	1
[3], 0.00152 µM	1.01
[3], 0.00457 µM	0.99
[3], 0.01372 µM	1.04
[3], 0.04115 µM	0.973
[3], 0.1235 µM	0.929
[3], 0.3704 µM	0.863
[3], 1.111 µM	0.738
[3], 3.333 µM	0.626
[3], 10 µM	0.119
[4], 0.00017 µM	1.05
[4], 0.00051 µM	1.08
[4], 0.00152 µM	1.06
[4], 0.00457 µM	1.06
[4], 0.01372 µM	1.069
[4], 0.04115 µM	1.07
[4], 0.1235 µM	1.06
[4], 0.3704 µM	1.06
[4], 1.111 µM	1.07
[4], 3.333 µM	1.01
[4], 10 µM	0.084
[5], 0.00017 µM	1.06
[5], 0.00051 µM	1.06
[5], 0.00152 µM	1.06
[5], 0.00457 µM	1.06
[5], 0.01372 µM	1.06
[5], 0.04115 µM	1.06
[5], 0.1235 µM	1.05
[5], 0.3704 µM	1.04
[5], 1.111 µM	1.037
[5], 3.333 µM	0.982
[5], 10 µM	0.146
[6], 0.00017 µM	0.933
[6], 0.00051 µM	0.93
[6], 0.00152 µM	0.942
[6], 0.00457 µM	0.928
[6], 0.01372 µM	0.898
[6], 0.04115 µM	0.944
[6], 0.1235 µM	0.934
[6], 0.3704 µM	0.958
[6], 1.111 µM	0.92
[6], 3.333 µM	0.804
[6], 10 µM	0.583
[7], 0.00017 µM	1.16
[7], 0.00051 µM	1.13
[7], 0.00152 µM	1.13
[7], 0.00457 µM	1.09
[7], 0.01372 µM	1.11
[7], 0.04115 µM	1.08
[7], 0.1235 µM	1.073
[7], 0.3704 µM	1.07
[7], 1.111 µM	1.03
[7], 3.333 µM	0.932
[7], 10 µM	0.145
[8], 0.00017 µM	0.995
[8], 0.00051 µM	1.07
[8], 0.00152 µM	1.02
[8], 0.00457 µM	1.04
[8], 0.01372 µM	1.02
[8], 0.04115 µM	1.01
[8], 0.1235 µM	1.01
[8], 0.3704 µM	0.999
[8], 1.111 µM	0.958
[8], 3.333 µM	0.947
[8], 10 µM	0.57
[9], 0.00017 µM	1.09
[9], 0.00051 µM	1.11
[9], 0.00152 µM	1.15
[9], 0.00457 µM	1.12
[9], 0.01372 µM	1.13
[9], 0.04115 µM	1.17
[9], 0.1235 µM	1.13
[9], 0.3704 µM	1.11
[9], 1.111 µM	1
[9], 3.333 µM	0.96
[9], 10 µM	0.422
[10], 0.00017 µM	1.05
[10], 0.00051 µM	1.03
[10], 0.00152 µM	1.02
[10], 0.00457 µM	1.03
[10], 0.01372 µM	1.03
[10], 0.04115 µM	1.03
[10], 0.1235 µM	1.03
[10], 0.3704 µM	1.04
[10], 1.111 µM	0.989
[10], 3.333 µM	0.963
[10], 10 µM	0.809
[11], 0.00017 µM	1
[11], 0.00051 µM	0.985
[11], 0.00152 µM	0.971
[11], 0.00457 µM	0.97
[11], 0.01372 µM	0.901
[11], 0.04115 µM	0.713
[11], 0.1235 µM	0.643
[11], 0.3704 µM	0.467
[11], 1.111 µM	0.369
[11], 3.333 µM	0.292
[11], 10 µM	0.099
[12], 0.00017 µM	1.04
[12], 0.00051 µM	1.06
[12], 0.00152 µM	1.04
[12], 0.00457 µM	1.06
[12], 0.01372 µM	1.05
[12], 0.04115 µM	1.045
[12], 0.1235 µM	1.05
[12], 0.3704 µM	1.03
[12], 1.111 µM	0.993
[12], 3.333 µM	0.994
[12], 10 µM	0.803

CCc1nc(C(N)=O)c(Nc2ccc(N3CCC(N4CCN(C)CC4)CC3)c(OC)c2)nc1NC1CCOCC1 [Gilteritinib]
Settings	relative viability
[1], 60 pM	1.05
[1], 0.00018 µM	1.01
[1], 0.00053 µM	1.04
[1], 0.0016 µM	1.04
[1], 0.0048 µM	1.02
[1], 0.014 µM	1.02
[1], 0.043 µM	1.03
[1], 0.13 µM	0.943
[1], 0.389 µM	0.742
[1], 1.167 µM	0.502
[1], 3.5 µM	0.385
[2], 60 pM	1.03
[2], 0.00018 µM	0.985
[2], 0.00053 µM	0.968
[2], 0.0016 µM	0.998
[2], 0.0048 µM	0.981
[2], 0.014 µM	0.979
[2], 0.043 µM	0.971
[2], 0.13 µM	0.851
[2], 0.389 µM	0.661
[2], 1.167 µM	0.478
[2], 3.5 µM	0.457
[3], 60 pM	0.9885
[3], 0.00018 µM	0.928
[3], 0.00053 µM	0.924
[3], 0.0016 µM	0.875
[3], 0.0048 µM	0.828
[3], 0.014 µM	0.797
[3], 0.043 µM	0.74
[3], 0.13 µM	0.63
[3], 0.389 µM	0.47
[3], 1.167 µM	0.357
[3], 3.5 µM	0.322
[4], 60 pM	1.08
[4], 0.00018 µM	1.032
[4], 0.00053 µM	0.999
[4], 0.0016 µM	1.04
[4], 0.0048 µM	1.07
[4], 0.014 µM	1.05
[4], 0.043 µM	1.05
[4], 0.13 µM	1.05
[4], 0.389 µM	1
[4], 1.167 µM	0.6791
[4], 3.5 µM	0.595
[5], 60 pM	1.08
[5], 0.00018 µM	1.12
[5], 0.00053 µM	1.07
[5], 0.0016 µM	1.1
[5], 0.0048 µM	1.061
[5], 0.014 µM	1.06
[5], 0.043 µM	1.03
[5], 0.13 µM	1.02
[5], 0.389 µM	0.959
[5], 1.167 µM	0.83
[5], 3.5 µM	0.695
[6], 60 pM	0.954
[6], 0.00018 µM	0.936
[6], 0.00053 µM	0.921
[6], 0.0016 µM	0.922
[6], 0.0048 µM	0.904
[6], 0.014 µM	0.947
[6], 0.043 µM	0.904
[6], 0.13 µM	0.89
[6], 0.389 µM	0.76
[6], 1.167 µM	0.51
[6], 3.5 µM	0.393
[7], 60 pM	1.03
[7], 0.00018 µM	1.01
[7], 0.00053 µM	1.01
[7], 0.0016 µM	1.03
[7], 0.0048 µM	0.985
[7], 0.014 µM	1.018
[7], 0.043 µM	0.977
[7], 0.13 µM	0.929
[7], 0.389 µM	0.765
[7], 1.167 µM	0.504
[7], 3.5 µM	0.398
[8], 60 pM	1.04
[8], 0.00018 µM	1.04
[8], 0.00053 µM	1
[8], 0.0016 µM	1
[8], 0.0048 µM	0.932
[8], 0.014 µM	0.955
[8], 0.043 µM	0.972
[8], 0.13 µM	0.896
[8], 0.389 µM	0.779
[8], 1.167 µM	0.65
[8], 3.5 µM	0.617
[9], 60 pM	1.08
[9], 0.00018 µM	1.13
[9], 0.00053 µM	1.11
[9], 0.0016 µM	1.14
[9], 0.0048 µM	1.15
[9], 0.014 µM	1.13
[9], 0.043 µM	1.09
[9], 0.13 µM	0.889
[9], 0.389 µM	0.633
[9], 1.167 µM	0.506
[9], 3.5 µM	0.491
[10], 60 pM	1.03
[10], 0.00018 µM	1.01
[10], 0.00053 µM	1.01
[10], 0.0016 µM	1.01
[10], 0.0048 µM	0.98
[10], 0.014 µM	0.949
[10], 0.043 µM	0.905
[10], 0.13 µM	0.787
[10], 0.389 µM	0.493
[10], 1.167 µM	0.341
[10], 3.5 µM	0.305
[11], 60 pM	0.959
[11], 0.00018 µM	0.921
[11], 0.00053 µM	0.915
[11], 0.0016 µM	0.848
[11], 0.0048 µM	0.815
[11], 0.014 µM	0.791
[11], 0.043 µM	0.734
[11], 0.13 µM	0.637
[11], 0.389 µM	0.481
[11], 1.167 µM	0.389
[11], 3.5 µM	0.369
[12], 60 pM	0.988
[12], 0.00018 µM	0.986
[12], 0.00053 µM	0.993
[12], 0.0016 µM	1.02
[12], 0.0048 µM	1
[12], 0.014 µM	0.997
[12], 0.043 µM	1.04
[12], 0.13 µM	0.937
[12], 0.389 µM	0.713
[12], 1.167 µM	0.433
[12], 3.5 µM	0.3
